One experiment deals with P. aeruginosa biofilm. Kind of experiment: HTS total biofilm formation assay (crystal violet staining). Format: cell-based, Pseudomonas aeruginosa. The following applies: for AC50: 10 point dose-response 0.1-50 μM. The text has this: Each HTS tier consisted of: (i) primary screening, (ii) confirmation screening and (iii) dose-response curve screening. Each tier of HTS included three distinct biological process assays. The first assay was an optical density measurement of bacteria growth in the presence of each compound reported as a total bacteria growth. In the second assay, resazurin solution was used as an indicator of metabolic activity to measure the live bacteria in the biofilms, reported as live biofilm. The final assay was crystal violet staining, which indicated the amount of biofilm formation and the effect of each compound on this process, reported as total biofilm formation.
Briefly, stationary phase bacteria grown in L-broth were diluted 1:200 into fresh L-broth and 50 μM of each test compound. After 20-24 hours, the optical density (OD560) of each suspension was measured using Zeiss Plate::Vision with a 560 BP filter (560 nm, 2.5% light intensity, 1 mm focus to bottom of plate, and exposure time of 100 ms). To measure bacterial viability in the biofilm, 50 μl of a 5 mg/ml resazurin solution in L-broth was added to each well after washing 3 times with 50 μl of PBS. The plates were then incubated at 37° C. for 30 or 180 min for A. baumannii and P. aeruginosa biofilms, respectively. Fluorescence was measured using Zeiss Plate::Vision at excitation and emission wavelengths of 535 and 580 nm, 100 ms exposure time, 2.5% intensity and a 2 mm focus to the bottom of the biofilms. To assess biofilm formation, plates were washed 3 times with PBS and then 50 μl of 0.01% of crystal violet was added to each well to assess bacterial biofilm formation as described in a similar borosilicate tube assay by O'Toole and Kolter. After incubation at room temperature for 30 min and removal of the crystal violet solution by washing with PBS, 95% ethanol was added to solubilize the crystal violet followed by incubation for 20 min at room temperature. Finally, the optical density of each plate was determined using measured by Zeiss Plate::Vision using the same settings used to measure total bacterial growth. These 3 steps were used in each of the three tiers for the HTS process: (i) single point primary screening at 10 μM, (ii) triplicate confirmation of hits from (i) at 10 μM and (iii) determination of AC50 values in 10 point dose-response at a concentration range of 0.1-50 μM) in hits from (ii). The AC50 represents the concentration of compound that inhibits 50% of bacterial growth, bacterial viability, or biofilm formation. Genedata Screener® Assay Analyzer Software (Ver. 9.0.0 Standard) was used to analyze data from all assay tiers. Compounds with an AC50 of less than 20 μM in one of the biological assays from the dose response screen were subject to additional investigation.

For the next experiment, the system named is S. epidermidis biofilm. Put plainly: HTS live biofilm assay (resazurin metabolic activity). Format: cell-based. The following applies: Staphylococcus epidermidis, dose-response.
The next experiment deals with P. aeruginosa. Kind of experiment: MIC determination (CLSI, Mueller Hinton broth), planktonic cultures. Format: cell-based, Pseudomonas aeruginosa. The following applies: for MIC: Pseudomonas aeruginosa. As to the method: (§1) A standard protocol for determining the MIC of a specific compound as outlined by the Clinical and Laboratory Standards Institute (CLSI) was used, based on growth of the selected bacteria in Mueller Hinton (MH) broth with subsequent 2-fold dilutions of compounds of interest. Following the CLSI protocols, the MIC of each broad spectrum “hit” compound was performed in all 3 bacterial species in both aerobic and anaerobic conditions. All bacteria were grown in MH broth for 18 hrs at 37° C. The cells were then diluted 100-fold into MH broth containing compounds at concentrations ranging from 0.40-50 μM in the presence of either KNO3 or glucose to allow bacterial growth under anaerobic condition. After 24 hrs of incubation, cell growth was measured at OD600 using a SpectraMax 190 Absorbance Microplate Reader.
(§2) The HTS and CLSM assays identified and confirmed compounds that can inhibit biofilms formation in aerobic growth conditions. However, P. aeruginosa and S. epidermidis are capable of growth under anaerobic as well as aerobic conditions. […] The Minimal Inhibitory Concentrations (MIC) of the four broad agent hit compounds under both aerobic and anaerobic conditions of planktonic P. aeruginosa and S. epidermidis cultures were determined to evaluate compound efficacy in different growth conditions. The MICs for A. baumannii were determined only in aerobic conditions. To examine growth in aerobic conditions, bacteria were grown in either Mueller Hinton (MH) media only, MH media in the presence of 1% KNO3, or MH in the presence of 1% glucose. For MIC determinations under anaerobic conditions, growth was examined in MH media with 1% KNO3 or with 1% glucose.

The subject of the next experiment is A. baumannii. The description is as above. Format: cell-based, Acinetobacter baumannii. The following applies: MH, Aerobic; for MIC: Acinetobacter baumannii, read-out: Minimum Inhibition Concentration. As to the method: as §1, §2
The subject of experiment [1] is P. aeruginosa established biofilm. Kind of experiment: CLSM, effect of compound on the pre-existing biofilm. Format: cell-based, Pseudomonas aeruginosa.
Setting [2] is: MH with 1% KNO3, Aerobic, read-out: Minimum Inhibition Concentration.
The mark [3] stands for this setting: MH with 1% KNO3, Anaerobic, read-out: Minimum Inhibition Concentration.
[4] abbreviates: MH, Aerobic, read-out: Minimum Inhibition Concentration.
Where [5] appears, read: across all growth conditions (aerobic and anaerobic), read-out: concentration required to inhibit planktonic P. aeruginosa growth (MIC).

In brackets after ≈: the same amount, converted by molar mass. Like-named read-outs stand apart in the source and are kept apart here.

As for `Cn1sc(Cl)c(C#N)c1=O` [Compound 3, 5-chloro-2-methyl-3-oxo-1,2-thiazole-4-carbonitrile], the concentration at half-maximal activity (AC50) in the experiment with P. aeruginosa biofilm (Pseudomonas aeruginosa) was found to be 3.07 µM; with S. epidermidis biofilm, 8.61 µM. Further, the MIC in the experiment on P. aeruginosa (setting [2]) was 33.3 ± 8.33 µM (≈ 5.82 µg/mL); with P. aeruginosa (setting [3]) it was 25 µM (≈ 4.37 µg/mL); in the experiment on P. aeruginosa (setting [4]), greater than 50 µM; with P. aeruginosa (setting [5]), no less than 25 µM; with A. baumannii, 5 to 6 µM (≈ 0.873 to 1.05 µg/mL). Besides, the “Minimum Inhibition Concentration” value in the experiment on A. baumannii was found to be 6.25 ± 2.21 µM. Also, the “effective on established P. aeruginosa biofilm at 100 μM (CLSM, in words)” value in experiment [1] was “effective at killing”.
As for `NC(=S)N1CCN(c2cc3c(cc2F)c(=O)c(C(=O)O)cn3C2CC2)CC1` [Compound 7, 7-(4-carbamothioylpiperazin-1-yl)-1-cyclopropyl-6-fluoro-4-oxoquinoline-3-carboxylic acid], the AC50 in the experiment with P. aeruginosa biofilm (Pseudomonas aeruginosa) was determined as 7.81 µM; in the experiment with S. epidermidis biofilm, 0.85 µM. The MIC was 5.21 ± 1.04 µM (≈ 2.03 µg/mL) with P. aeruginosa (setting [2]); 4.17 ± 1.04 µM (≈ 1.63 µg/mL) in the experiment with P. aeruginosa (setting [3]); 4.7 ± 1.04 µM (≈ 1.84 µg/mL) in the experiment with P. aeruginosa (setting [4]); 4 to 5 µM (≈ 1.56 to 1.95 µg/mL) with P. aeruginosa (setting [5]); 16 µM (≈ 6.25 µg/mL) with A. baumannii. Also, the “Minimum Inhibition Concentration” value with A. baumannii amounted to 16.67 ± 4.17 µM. Further, the “effective on established P. aeruginosa biofilm at 100 μM (CLSM, in words)” value in experiment [1] was “effective”.
In the case of `O=C(O)c1cn(C2CC2)c2c(F)c(N3CC(O)C3)c(F)cc2c1=O` [Compound 8, 1-cyclopropyl-6,8-difluoro-7-(3-hydroxyazetidin-1-yl)-4-oxoquinoline-3-carboxylic acid], the AC50 is 10.3 µM with P. aeruginosa biofilm and less than 0.1 µM with S. epidermidis biofilm. Further, in the experiment on P. aeruginosa biofilm (Y / —), the “HTS assay results: Biofilm Formation” value was “—* (AC50 higher than 20 μM)”. Moreover, the “Minimum Inhibition Concentration” value in the experiment on P. aeruginosa (MH with 1% KNO3, Anaerobic) is 7.81 ± 2.71 µM. Further, the MIC is no more than 20 µM in the experiment with P. aeruginosa (setting [2]), 7 µM (≈ 2.35 µg/mL) with P. aeruginosa (setting [3]), 10.4 ± 2.08 µM (≈ 3.5 µg/mL) in the experiment with P. aeruginosa (setting [4]) and roughly 1 µM (≈ 0.336 µg/mL) in the experiment with A. baumannii.
For `O=C(O)c1cn(C2CC2)c2c(F)c(-c3ccncc3)c(F)cc2c1=O` [Compound 11, 7-(4-pyridyl)-1-cyclopropyl-6,8-difluoro-4-oxoquinoline-3-carboxylic acid], the half-maximal activity concentration (AC50) with P. aeruginosa biofilm (Pseudomonas aeruginosa) was 7.4 µM; with S. epidermidis biofilm it was less than 0.1 µM. In addition, the MIC in the experiment with P. aeruginosa (setting [2]) is greater than 50 µM; in the experiment on P. aeruginosa (setting [3]) it was 25 ± 12.5 µM (≈ 8.56 µg/mL); in the experiment on P. aeruginosa (setting [4]) it was greater than 50 µM; in the experiment on P. aeruginosa (setting [5]), no less than 25 µM; in the experiment on A. baumannii, 5 to 6 µM (≈ 1.71 to 2.05 µg/mL). The “Minimum Inhibition Concentration” value with A. baumannii was 5.12 ± 1.04 µM.

Source of the values: US10704076B2, “Multi-tiered high through-put screen for compounds effective against bacterial biofilm and compounds effective for inhibiting and eradicating bacterial biofilm” (University of Cincinnati, priority 2013, dated 2020).
